# Patent US7420031B2, “Intracellular delivery of small molecules, proteins, and nucleic acids” (Lonza Walkersville, Inc., priority 2003, dated 2008)
# Where a SMILES comes first, the peptide text is derived from it. Where no end group is shown, it is not given here. The star is where a group is joined. Biotin = O=C1N[C@H]2[C@H](CS[C@H]2CCCCC(=O)*)N1
# Columns and labels:
# [1] = system: NIH 3T3 cells; conditions: 20 nM complex with streptavidin-β-galactosidase, 1 hour at 37° C.
# Protocol: The transport activities of PTDs were compared to determine if introduction of a nuclear localization signal affect translocation of a PTD-cargo moiety complex. The cargo moiety was streptavidin-linked β-galactosidase. The cargo moiety was streptavidin-linked β-galactosidase. The peptides differed by the position of the nuclear localization signal. The nuclear localization signal was located on the amino terminus (down-stream of a lysine linker) or the carboxy terminus. NIH 3T3 cells were seeded as described above. Each PTD complex was added to a final concentration of 20 nM, and the cells were incubated for 1 hour at 37° C. Following incubation, the cells were washed 3 times in PBS and assayed for nuclear localization of β-galactosidase. β-galactosidase activity was measured at 405 nm in a colorimetric assay.
# Peptides containing two nuclear localization signals were tested to study the role of the multiple nuclear localization signals on peptide transport. NIH 3T3 cells were seeded as described above. A PTD-β-galactosidase complex was added to a final concentration of 20 nM, and the cells were incubated for 1 hour at 37° C. Following incubation, the cells were washed 3 times in PBS and assayed for nuclear localization of β-galactosidase.
# [2] = system: NIH 3T3 cells; conditions: PTD without cargo moiety, 0-1000 nM (nanomolar range), 48 hours
# Protocol: PTDs (SEQ ID NOS:7 and 10), in the absence of a cargo moiety, were added to NIH 3T3 cultures at final concentrations ranging from 0-1000 nM to determine if the PTDs were cytotoxic. NIH 3T3 cells were seeded and incubated overnight, and the peptides were added to the cultures. The cells were incubated for 48 hours, and cell viability was determined using an Alamar blue assay.
# [3] = system: plasma membrane; conditions: Wender et al., Proc. Natl. Acad. Sci USA 97:13003-13008, 2000; cited from earlier work
# [4] = system: NIH 3T3 cells; experiment: PTD-β-galactosidase transduction into NIH 3T3 cells (lysate absorbance at 405 nm); format: cell-based; conditions: general statement in description
# Protocol: N-terminally biotinylated direct and inverted isomers were compared to determine the transduction efficiency of inverted isomers of PTDs. PTDs and β-galactosidase were complexed together with a streptavidin-biotin bridge. NIH 3T3 cells were seeded into a 96-well plate and incubated as described above. The PTD-β-galactosidase complexes were formed (as described in Example 1) and added to a final concentration of 12.5 nM. […] The lysis reaction was stopped and the absorbance at 405 nm was measured. The transduction activity of inverted isomers is stronger than the transduction activity of direct PTDs.
# The activities of 2 PTDs were compared to determine if the introduction of a lysine residue juxtaposed to the biotin moiety affects transduction activity. The pairs of peptides differed by a glycine to lysine substitution within the biotin peptide linker. PTDs and β-galactosidase were complexed together with a streptavidin-biotin bridge. NIH 3T3 cells were seeded as described above. […] The lysis reaction was stopped, and the absorbance at 405 nm was measured. The presence of a lysine residue juxtaposed to the biotin caused about a two-fold enhancement in transduction activity.
# To further study the role of the lysine residue located in the biotin linker, the indirect PTDs and the direct PTDs with a lysine residue in the linker were compared. […]
# [5] = system: human dermal fibroblasts; experiment: Histochemical staining for β-galactosidase in cells transduced with PTD complex; format: cell-based; conditions: 50 nM complex with streptavidin-β-galactosidase, 1 hour at 37° C., light microscopy
# Protocol: To determine the efficiency of transduction based on the percentage of cells that receive the reporter protein, cells were assayed by histochemical staining for the reporter protein.
# HUVEC and human dermal fibroblast cells were each seeded at 40,000 per well of a 24-well plate and incubated overnight. PTD complexes (SEQ ID NO:7-streptavidin-β-galactosidase or SEQ ID NO:6-streptavidin-β-galactosidase) were added to the wells at a final concentration of 50 nM and incubated for 1 hour at 37° C. The cells were washed 3 times in PBS, fixed, and stained for β-galactosidase using a β-galactosidase staining set (Roche) according to the manufacturer's instructions. Following development of β-galactosidase activity, the cells were washed with PBS and visualized by light microscopy.
# [6] = system: 293 HEK cells; experiment: PTD-mediated transport of streptavidin-β-galactosidase into 293 HEK cells (lysate absorbance at 405 nm); format: cell-based; conditions: 50 nM complex with streptavidin-β-galactosidase, 30 minutes at 37° C.
# Protocol: To determine the effect of biotin location on transduction efficiency, biotin was added to either the amino terminus or the carboxy terminus of three PTDs. A (Gly)3 linker was added to the amino terminus for N-terminal biotinylated peptides. For C-terminal biotinylation, the last glycine in the C-terminal linker was replaced by lysine. The side chain of lysine was used for the attachment of the biotin group. A peptide with negligible transduction activity (Mi et al., Mol. Ther., 2:339-347, 2000) (SEQ ID NO:6) was used as a negative control. PTDs and β-galactosidase were complexed together with a streptavidin-biotin bridge.
# To test for transduction efficiency, 293 HEK cells were seeded into a 96-well plate at approximately 4500 cells/well and incubated overnight. To prepare peptide complexes, equimolar concentrations of biotinylated PTD and streptavidin-crosslinked β-galactosidase were mixed and diluted in cell culture medium. The mixtures were incubated for 30 minutes at 37° C. to allow formation of complexes. Each complex was added to a final concentration of 50 nM and incubated for 30 minutes at 37° C. To assay for β-galactosidase activity, the cells were washed 3 times with PBS and were lysed with 100 μl of assay reagent (Pierce). […] The absorbance at 405 nm was measured on a Wallac Victor spectroluminometer.
# [7] = system: NIH 3T3 cells; conditions: 20 nM complex with streptavidin-linked β-galactosidase, 1 hour at 37° C.
# Protocol: To determine the intracellular location of the complex, cells were immunostained for streptavidin. NIH 3T3 cells were seeded into 24-well tissue culture plates and incubated overnight. The cells were treated with 20 nM PTD-cargo moiety complex comprising the polypeptide sequence shown in SEQ ID NO:14 and streptavidin-linked β-galactosidase for 1 hour at 37° C. The cells were washed 3 times with PBS, and non-specific binding was blocked by a 30 minute incubation with normal goat serum at room temperature. Mouse anti-streptavidin monoclonal antibody (Monosan, Catalog No. 5043) was diluted to 1 μg/ml with PBS containing 20% normal goat serum. The diluted monoclonal antibody was added to the cells, and the cells were incubated for 1 hour at room temperature.
# The cells were washed 3 times with PBS and a secondary Alexa Fluor 568 conjugated goat anti-mouse IgG (Molecular Probes, Catalog No. A-11019) was diluted 1:200 in PBS with 20% normal goat serum. Following a 30 minute incubation at room temperature, the cells were washed 3 times with PBS and visualized by fluorescent microscopy.
# [8] = Mi et al., Mol. Ther., 2:339-347, 2000; cited from earlier work
compound,measurement,setting,value
Biotin-KGGRKMLKSTRRQRRKKKRKV [SEQ ID NO:19],"translocation of the complex, effect of nuclear localization signal and its position",[1],functioned much better
"CSCC[C@H](NC(=O)[C@H](CC(C)C)NC(=O)[C@H](CCCCN)NC(=O)[C@H](CO)NC(=O)[C@@H](NC(=O)[C@H](CCCNC(=N)N)NC(=O)[C@H](CCCNC(=N)N)NC(=O)[C@H](CCC(N)=O)NC(=O)[C@H](CCCNC(=N)N)NC(=O)[C@@H](N)CCCNC(=N)N)[C@@H](C)O)C(=O)N[C@@H](CCCCN)C(=O)N[C@@H](CCCNC(=N)N)C(=O)NCC(=O)NCC(=O)N[C@@H](CCCCNC(=O)CCCC[C@@H]1SC[C@@H]2NC(=O)N[C@@H]21)C(=O)O [SEQ ID NO:11, Arg-Arg-Gln-Arg-Arg-Thr-Ser-Lys-Leu-Met-Lys-Arg-Gly-Gly-Lys-Biotin] (H-RRQRRTSKLMKRGGK(Biotin)-OH)",effect on cell growth / cell viability,[2],did not inhibit cell growth
"SEQ ID NO:23: a reverse isomer of a tat-derived peptide (reverse tat), Wender et al. (RRRQRRKKRGY; Human immunodeficiency virus)",efficiency of crossing the plasma membrane relative to tat (SEQ ID NO:24),[3],about three times
RKMLKSTRRQRR [SEQ ID NO:1],ability to function as a PTD relative to tat (SEQ ID NO:24) and WO 01/15511 peptide (SEQ ID NO:25),[4],more efficiently
"N=C(N)NCCC[C@H](NC(=O)CNC(=O)[C@@H](N)Cc1ccc(O)cc1)C(=O)N[C@@H](CCCCN)C(=O)N[C@@H](CCCCN)C(=O)N[C@@H](CCCNC(=N)N)C(=O)N[C@@H](CCCNC(=N)N)C(=O)N[C@@H](CCC(N)=O)C(=O)N[C@@H](CCCNC(=N)N)C(=O)N[C@@H](CCCNC(=N)N)C(=O)N[C@@H](CCCNC(=N)N)C(=O)NCC(=O)NCC(=O)N[C@@H](CCCCNC(=O)CCCC[C@@H]1SC[C@@H]2NC(=O)N[C@@H]21)C(=O)O [SEQ ID NO:8, Tyr-Gly-Arg-Lys-Lys-Arg-Arg-Gln-Arg-Arg-Arg-Gly-Gly-Lys-Biotin]",effect on cell growth / cell viability,[2],did not inhibit cell growth
Biotin-Gly-Gly-Gly-Tyr-Gly-Arg-Lys-Lys-Arg-Arg-Gln-Arg-Arg-Arg [SEQ ID NO:7],β-galactosidase reporter protein staining of cells,[5],positive
Biotin-GGGYARAAARQARA [SEQ ID NO:9],function as a PTD (amount of β-galactosidase in the cell lysate vs negative control SEQ ID NO:6),[6],did not function as a PTD
Biotin-KGGRKMLKSTRRQRR [SEQ ID NO:14],intracellular location of the complex,[7],localized to the cytoplasm
Biotin-GGARPLEHGSDKAT [SEQ ID NO:6],transduction activity,[8],negligible
